Holding throughout (assay type): binding
The target in experiment [1] is T1, SARS-CoV-2 NSP3 Mac1 (Severe acute respiratory syndrome coronavirus 2, UniProt P0DTD1). The experiment is described as follows: biochemical. Conditions: for IC50: read-out: IC50; for Ki: Ki estimation from HTRF-derived IC50, Cheng-Prusoff, peptide 400nM, Kd 2.68µM, read-out: Ki***.
Experiment [2] deals with T1, SARS-CoV-2 NSP3 Mac1. Conditions: for Refined occupancy: ligand occupancy after refinement (phenix.refine).
The target in experiment [3] is T1, SARS-CoV-2 NSP3 Mac1. More on the design: contains a conserved macrodomain enzyme (Mac1). The following applies: for Spearman est (compound concentration vs apparent Tm): DSF dose responsiveness, 1 µM nsp3 mac1, adj p given. The procedure, abridged: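 Differential scanning fluorimetry using 5 µM Fluorescent Yellow dye in place of SYPRO Orange. Compounds run in triplicate at seven two-fold dilutions from 1,000 or 100 μM, with ΔTma taken against a DMSO control in the same plate region. Dose-response significance assessed by Spearman's coefficient between concentration and ΔTma.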

Setting [4] is: HTRF ADPr-peptide displacement from SARS-CoV-2 Mac1.
[5] abbreviates: HTRF, several values in a cell are separate determinations.
[6] abbreviates: PanDDA 1-BDC (background density correction) of the event, crystal soak 100 mM, PanDDA run dmso_34.
Where [7] appears, read: PanDDA event map, 1 minus background density correction, crystal soaking of Mac1.
Where [8] appears, read: crystal soak, compound concentration 100 mM, PanDDA run dmso_34, series docking_lead-like_1.
The mark [9] stands for this setting: ligand modeled in the crystal structure, crystal soak 100 mM, PanDDA run dmso_34.
Where [10] appears, read: overall hit flag: binding in crystallographic soaking or the HTRF-based binding assay.
Setting [11] is: maximal thermal upshift vs DMSO control.
[12] abbreviates: PanDDA 1-BDC value of the event, crystal soak, compound concentration 100 mM, per dataset.
The mark [13] stands for this setting: crystal soak, compound concentration 100 mM, per dataset.
Setting [14] is: ligand modeled from this dataset, compound concentration 100 mM, Echo dispense volume 40 or 80 nl.
Setting [15] is: true hit = binding in crystallographic soaking or the HTRF-based binding assay.

Several values for one entry are separate records, joined by “and”; a condition that tells them apart may be missing. Identical values can stand only once. Like-named read-outs stand apart in the source and are kept apart here.

For the molecule `O=S1(=O)CCC2(CCCN(c3ncnc4[nH]ccc34)C2)C1` (stereo not drawn) [Z4305], the concentration for half-maximal inhibition (IC50) in experiment [1] (setting [4]) and in experiment [1] (setting [5]) was 170 µM in each case. Moreover, the Ki in experiment [1] was 148 µM. In addition, the 1-BDC in experiment [2] (setting [6]) and in experiment [2] (setting [7]) was 0.38 each time. For the same molecule, the “PanDDA hit?” value in experiment [2] (setting [8]) is “TRUE”. For the same molecule, in experiment [2] (setting [9]), the “Modeled?” value is listed as “TRUE”. In addition, the Refined occupancy in experiment [2] (crystal soaking of Mac1) is given as 76. Moreover, in experiment [2] (setting [10]), the “HIT*” value is on record as “Y”. Moreover, the “Spearman est (compound concentration vs apparent Tm)” value in experiment [3] stood at 0.77. In addition, the “DSF max dTma” value in experiment [3] (setting [11]) is 1.26 °C.

On to `CCc1c[nH]c2ncnc(N3CCCC(S(C)(=O)=O)C3)c12` (stereo not drawn) [Z1027], for which the IC50 in experiment [1] (setting [4]) and in experiment [1] (setting [5]) was 126 µM in each case. In addition, the Ki in experiment [1] was 110 µM. Also, the 1-BDC in experiment [2] (setting [6]) and in experiment [2] (setting [7]) was 0.17 throughout. In experiment [2] (setting [8]), the “PanDDA hit?” value is listed as “TRUE”. Further, in experiment [2] (setting [9]), the “Modeled?” value is “TRUE”. Further, in experiment [2] (crystal soaking of Mac1), the Refined occupancy is 34. Besides, in experiment [2] (setting [10]), the “HIT*” value is listed as “Y”. For the same molecule, the “Spearman est (compound concentration vs apparent Tm)” value in experiment [3] was found to be 0.96. Besides, the “DSF max dTma” value in experiment [3] (setting [11]) worked out at 1.03 °C.

For `O=C(NC1c2cccc(O)c2CC1C(=O)O)c1ccc(NCC2CC2)nc1` (stereo not drawn) [8539_0009], the Ki in experiment [1] is 14.9 µM. Besides, the figures for the 1-BDC in experiment [2] (setting [12]) and in experiment [2] (setting [7]) were 0.18 and 0.24, respectively. For the same molecule, the “PanDDA hit?” value in experiment [2] (setting [13]) is “TRUE”. In experiment [2] (setting [14]), the “Modeled?” value is given as “TRUE”. In experiment [2] (crystal soaking of Mac1), this molecule displayed a Refined occupancy of 70. In addition, the “HIT*” value in experiment [2] (setting [15]) was “Y”. Further, in experiment [3], the “Spearman est (compound concentration vs apparent Tm)” value turned out to be 0.34. Also, the “DSF max dTma” value in experiment [3] (maximal thermal upshift) was 2.03 ˚C.

As for `O=C(Nc1ccc(C(=O)NCc2c(C(=O)O)oc3ccccc23)cc1)NC1CC1` [Z8539_0026], the IC50 is 84 µM in experiment [1] (setting [4]) and 83.8 µM in experiment [1] (HTRF). Further, in experiment [1], the Ki is 72.9 µM. For the same molecule, the 1-BDC is on record as 0.3 in experiment [2] (setting [12]) and 0.33 in experiment [2] (setting [7]). In experiment [2] (setting [13]), the “PanDDA hit?” value is recorded as “TRUE”. In addition, in experiment [2] (setting [14]), the “Modeled?” value is “TRUE”. The molecule also showed a Refined occupancy in experiment [2] (crystal soaking of Mac1) of 66. The “HIT*” value in experiment [2] (setting [15]) is on record as “Y”. For the same molecule, the “Spearman est (compound concentration vs apparent Tm)” value in experiment [3] came to 0.37. Also, in experiment [3] (maximal thermal upshift), the “DSF max dTma” value is given as 3.52 ˚C.

Take `OC[C@H]1CCCN(c2ncnc3[nH]c4cc(F)ccc4c23)C1` [Z7873]: the IC50 was ≤ 90 µM and 90 µM in experiment [1] (setting [4]); 90.3 µM in experiment [1] (setting [5]). The Ki in experiment [1] is 78.6 µM. For the same molecule, the 1-BDC in experiment [2] (PanDDA event map background density correction, crystal soak, Compound_concentration 100 mM, PanDDA run dmso_34) is reported as 0.06; in experiment [2] (setting [7]), 0.06. In experiment [2] (crystal soak, Compound_concentration 100 mM, Echo dispense 40 nl, PanDDA run dmso_34), the “PanDDA hit?” value is reported as “TRUE”. Further, the “Modeled?” value in experiment [2] (ligand modeled in crystal structure, crystal soak, Compound_concentration 100 mM, PanDDA run dmso_34) is “TRUE”. Moreover, in experiment [2] (crystal soaking of Mac1), the Refined occupancy worked out at 12. In addition, the “HIT*” value in experiment [2] (setting [10]) is “Y”. Further, the “Spearman est (compound concentration vs apparent Tm)” value in experiment [3] is listed as 0.95. In experiment [3] (setting [11]), the “DSF max dTma” value came out at 1.5 °C.

As for `C[C@@H]1CN(c2ncnc3[nH]c4ccccc4c23)C[C@@H](CO)O1` [Z6923], the IC50 in experiment [1] (setting [4]) is 416 µM and ≤ 90 µM; in experiment [1] (setting [5]) it was 416 µM. For the same molecule, the Ki in experiment [1] was 362 µM. The same molecule displayed a 1-BDC in experiment [2] (setting [7]) of 0.1. Further, the “Modeled?” value in experiment [2] (ligand modeled in structure, crystal soak, Compound_concentration 100 mM) is “TRUE”. For the same molecule, the Refined occupancy in experiment [2] (crystal soaking of Mac1) is 20. For the same molecule, the “HIT*” value in experiment [2] (setting [10]) is “Y”. The “Spearman est (compound concentration vs apparent Tm)” value in experiment [3] is given as 0.28. Moreover, the “DSF max dTma” value in experiment [3] (setting [11]) was 0.46 °C.

For the molecule `Cc1[nH]c2ncnc(N3CCOC(CC(F)(F)F)C3)c2c1C` (stereo not drawn) [Z2051], the IC50 in experiment [1] (setting [4]) and in experiment [1] (setting [5]) was 137 µM each time. Moreover, the Ki in experiment [1] was 119 µM. Further, the “HIT*” value in experiment [2] (setting [10]) is given as “Y”. In addition, in experiment [2] (soaks at 10 to 20 mM), the “binding to Mac1 in crystal soaking, result in words” value was “not confirmed by X-ray crystallography”. Moreover, the “Spearman est (compound concentration vs apparent Tm)” value in experiment [3] came to 0.51. Moreover, the “DSF max dTma” value in experiment [3] (setting [11]) worked out at 0.51 °C.

As to `CNC(=O)Nc1ccc(C(=O)NC2c3cccc(O)c3CC2C(=O)O)cc1` (stereo not drawn) [Z8539_0077], the “binding to Mac1 in the HTRF assay, result in words” value in experiment [1] was “did not substantially change binding affinity”. For the same molecule, in experiment [1] (HTRF), the IC50 was determined as 1 µM. In addition, the inhibitory constant (Ki) in experiment [1] is 0.9 µM. For the same molecule, the 1-BDC in experiment [2] (PanDDA event map 1-BDC, crystal soak, Compound_concentration 100 mM, PanDDA run dmso_34 or nohits_35 per dataset) is given as 0.25; in experiment [2] (setting [7]) it was 0.2. Besides, the “PanDDA hit?” value in experiment [2] (crystal soak, Compound_concentration 100 mM, Echo dispense 40 nl, PanDDA run dmso_34 or nohits_35 per dataset) is reported as “TRUE”. The “Modeled?” value in experiment [2] (ligand modeled from this dataset, compound concentration 100 mM) was “TRUE”. Further, the Refined occupancy in experiment [2] (crystal soaking of Mac1) is recorded as 40. In experiment [2] (setting [15]), the “HIT*” value is given as “Y”.

In general, IC50 refers to the concentration that inhibits the measured activity by half. In general, Ki refers to a measure of affinity in units of concentration, obtained from inhibition or displacement.

The values above are taken from paper PMC9926234, “Iterative computational design and crystallographic screening identifies potent inhibitors targeting the Nsp3 macrodomain of SARS-CoV-2” (Proceedings of the National Academy of Sciences of the …, 2023).
